According to ChEMBL document CHEMBL4038345, “Design, Synthesis, and Biological Evaluation of Novel Selenium-Containing Isocombretastatins and Phenstatins as Antitumor Agents” (J Med Chem, 2017):
pIC50: −log10 of the molar value. Activity calls are given as the source filed them. The calls are words filed in the database; no cut-off is given here.

Experiments:
[1] = tested on: A549; test: Induction of apoptosis in human A549 cells assessed as downregulation of Bcl2 expression at 1 to 10 nM after 24 to 48 hrs by Western blot analysis; type: functional, cell-based
[2] = tested on: A549; test: Induction of microtubule disruption in human A549 cells at 5 to 10 nM after 8 to 24 hrs by Hoechst 33342 staining-based laser scanning confocal immunofluorescence microscopic analysis; type: cell-based
[3] = tested on: A549; test: Induction of apoptosis in human A549 cells assessed as late apoptotic cells at 10 nM for 48 hrs by annexin V-FITC/propidium iodide staining-based flow cytometry analysis; type: functional
[4] = tested on: A549; test: Cell cycle arrest in human A549 cells assessed as increase in accumulation of cells at G2/M phase at 1 nM after 24 hrs by propidium iodide staining-based flow cytometry method; type: functional
[5] = tested on: A549; test: Induction of apoptosis in human A549 cells assessed as live cells at 10 nM for 24 hrs by annexin V-FITC/propidium iodide staining-based flow cytometry analysis (reference value: 99.15%); type: functional
[6] = tested on: MGC-803; test: Antiproliferative activity against human MGC803 cells after 48 hrs by MTT assay; details: MGC-803, 48 h
[7] = tested on: A549; test: Induction of apoptosis in human A549 cells assessed as early apoptotic cells at 1 nM for 48 hrs by annexin V-FITC/propidium iodide staining-based flow cytometry analysis (reference value: 0.97%); type: functional
[8] = tested on: A2780; test: cells; details: Homo sapiens, A2780, 48 h
Description: Antiproliferative activity against human A2780 cells after 48 hrs by MTT assay

[9] = tested on: A549; test: Induction of apoptosis in human A549 cells assessed as early apoptotic cells at 10 nM for 24 hrs by annexin V-FITC/propidium iodide staining-based flow cytometry analysis (reference value: 0.82%); type: functional
[10] = Half life in Sprague-Dawley rat by UV-based HPLC-MS/MS analysis; type: ADME; details: in vivo
[11] = tested on: A549; test: Induction of apoptosis in human A549 cells assessed as necrotic cells at 1 nM for 48 hrs by annexin V-FITC/propidium iodide staining-based flow cytometry analysis (reference value: 0.02%); type: functional
[12] = tested on: A549; test: Induction of apoptosis in human A549 cells assessed as necrotic cells at 5 nM for 24 hrs by annexin V-FITC/propidium iodide staining-based flow cytometry analysis (reference value: 0.03%); type: functional
[13] = tested on: RKO; test: Antiproliferative activity against human RKO cells after 48 hrs by MTT assay
[14] = tested on: LoVo; test: Antiproliferative activity against human LoVo cells after 48 hrs by MTT assay
[15] = tested on: A549; test: Disruption of mitochondrial membrane potential in human A549 cells at 1 to 10 nM after 24 hrs by JC1/Hoechst 33342 staining-based fluorescence microscopic method; type: functional, cell-based
[16] = tested on: A549; test: Induction of apoptosis in human A549 cells assessed as early apoptotic cells at 10 nM for 48 hrs by annexin V-FITC/propidium iodide staining-based flow cytometry analysis (reference value: 0.97%); type: functional
[17] = tested on: A549; test: Disruption of mitochondrial membrane potential in human A549 cells at 1 nM after 24 hrs by JC1 staining-based flow cytometry method (reference value: 0.62%); type: functional
[18] = tested on: A549; test: Induction of apoptosis in human A549 cells assessed as live cells at 1 nM for 48 hrs by annexin V-FITC/propidium iodide staining-based flow cytometry analysis (reference value: 99.01%); type: functional
[19] = tested on: A549; test: Disruption of mitochondrial membrane potential in human A549 cells assessed as intact mitochondrial membrane at 10 nM after 24 hrs by JC1 staining-based flow cytometry method (reference value: 99.18%); type: functional
[20] = tested on: A549; test: Induction of apoptosis in human A549 cells assessed as necrotic cells at 10 nM for 48 hrs by annexin V-FITC/propidium iodide staining-based flow cytometry analysis (reference value: 0.02%); type: functional
[21] = tested on: A549; test: Induction of apoptosis in human A549 cells assessed as necrotic cells at 1 nM for 24 hrs by annexin V-FITC/propidium iodide staining-based flow cytometry analysis (reference value: 0.03%); type: functional
[22] = tested on: HeLa; test: cells; details: Homo sapiens, 48 h
[23] = tested on: A549; test: Induction of apoptosis in human A549 cells assessed as late apoptotic cells at 5 nM for 24 hrs by annexin V-FITC/propidium iodide staining-based flow cytometry analysis; type: functional
[24] = tested on: MCF7; test: cells; details: Homo sapiens, MCF7, 48 h
[25] = tested on: A549; test: Disruption of mitochondrial membrane potential in human A549 cells at 10 nM after 24 hrs by JC1 staining-based flow cytometry method (reference value: 0.62%); type: functional
[26] = tested on: A549; test: Induction of apoptosis in human A549 cells assessed as downregulation of Bcl-xl expression at 1 to 10 nM after 24 to 48 hrs by Western blot analysis; type: functional, cell-based
[27] = tested on: HepG2; test: cells; details: Homo sapiens, HepG2, 48 h
[28] = tested on: A549; test: Induction of apoptosis in human A549 cells assessed as live cells at 5 nM for 48 hrs by annexin V-FITC/propidium iodide staining-based flow cytometry analysis (reference value: 99.01%); type: functional
[29] = tested on: A549; test: Induction of apoptosis in human A549 cells assessed as early apoptotic cells at 1 nM for 24 hrs by annexin V-FITC/propidium iodide staining-based flow cytometry analysis (reference value: 0.82%); type: functional
[30] = tested on: A549; test: Disruption of mitochondrial membrane potential in human A549 cells at 5 nM after 24 hrs by JC1 staining-based flow cytometry method (reference value: 0.62%); type: functional
[31] = tested on: A549; test: Disruption of mitochondrial membrane potential in human A549 cells assessed as intact mitochondrial membrane at 1 nM after 24 hrs by JC1 staining-based flow cytometry method (reference value: 99.18%); type: functional
[32] = Resistance index, ratio of IC50 for human A549/CDDP cells to IC50 for human A549 cells; type: functional
[33] = Resistance index, ratio of IC50 for human HepG2/DOX cells to IC50 for human HepG2 cells; type: functional
[34] = tested on: A549; test: Induction of apoptosis in human A549 cells assessed as early apoptotic cells at 5 nM for 48 hrs by annexin V-FITC/propidium iodide staining-based flow cytometry analysis (reference value: 0.97%); type: functional
[35] = tested on: A549; test: Induction of apoptosis in human A549 cells assessed as necrotic cells at 10 nM for 24 hrs by annexin V-FITC/propidium iodide staining-based flow cytometry analysis (reference value: 0.03%); type: functional
[36] = tested on: A549; test: Induction of apoptosis in human A549 cells assessed as late apoptotic cells at 1 nM for 48 hrs by annexin V-FITC/propidium iodide staining-based flow cytometry analysis; type: functional
[37] = tested on: A549; test: Induction of apoptosis in human A549 cells assessed as upregulation of Bad expression at 1 to 10 nM after 24 to 48 hrs by Western blot analysis; type: functional, cell-based
[38] = Metabolic stability in Sprague-Dawley rat liver microsomes assessed as compound remaining after 120 mins in presence of NADPH by UV-based HPLC-MS/MS analysis; type: ADME, microsome; details: read-out: Stability
[39] = Metabolic stability in Sprague-Dawley rat liver microsomes assessed as compound remaining after 90 mins in presence of NADPH by UV-based HPLC-MS/MS analysis; type: ADME, microsome; details: read-out: Stability

C=C(c1ccc(OC)c(O)c1)c1cc(OC)c(OC)c([Se]C)c1
Activity [1]: Active | Activity [2]: Active | Activity [3]: 20.44% | Activity [4]: 50% | Activity [5]: 48.49% | pIC50 [6]: 8.05 | Activity [7]: 15.79% | pIC50 [8]: 8.22 | Activity [9]: 49.48% | half-life [10]: 1.24 h | Activity [11]: 0.86% | Activity [12]: 1.69% | pIC50 [13]: 7.96 | pIC50 [14]: 8.05 | Activity [15]: Active | Activity [16]: 42.57% | Activity [17]: 12.78% | Activity [18]: 80.49% | Activity [19]: 9.14% | Activity [20]: 13.55% | Activity [21]: 0.2% | pIC50 [22]: 8.52 | Activity [23]: 2.52% | pIC50 [24]: 7.57 | Activity [25]: 90.78% | Activity [26]: Active | pIC50 [27]: 8.52 | Activity [28]: 49.13% | Activity [29]: 3.63% | Activity [30]: 42.63% | Activity [31]: 86.88% | Ratio IC50 [32]: 8.8 | Ratio IC50 [33]: 6.8 | Activity [34]: 15.69% | Activity [35]: 0.08% | Activity [36]: 2.86% | Activity [37]: Active | remaining at 2 h [38]: 33.4% | remaining at 1.5 h [39]: 44.1%
